Values quoted from earlier work, collected in US20140227371A1, “EDIBLE COMPOSITION” (priority 2011, published 2014).

Experiments:
[1] = alcohol-induced steatosis and steatohepatitis models; Kang et al. 2005
rat liver = settings: through activation of the β-oxidation system, Tsuduki et al. 2009

**Q.** For `[Zn]` [Zinc], which Hepatoprotective effects [1] is on record?
**A.** The Hepatoprotective effects was “hepatoprotective effects”.

**Q.** For `OC[C@H]1NC[C@H](O)[C@@H](O)[C@@H]1O` [1-Deoxynojirimycin], which Lipid accumulation (rat liver) is on record?
**A.** Its Lipid accumulation is “suppress lipid accumulation”.
